The target of this test is T1, opioid δ receptor (Rattus norvegicus, UniProt P33533).
T1 construct: A membrane fraction of opioid δ receptor was prepared from the rat forebrain; from tissue; host or cells: rat forebrain membrane fraction
The experiment in a line: Binding affinity for opioid δ receptor ([3H]-Naltrindole displacement, rat forebrain membrane fraction). As to conditions: [3H]-Naltrindole 1 nM, 25° C., 90 minutes, Ki calculated from IC50 by the Cheng-Prusoff equation.

For one compound, Ki results are on record in patent publication US6790854B2, “Diphenylalkylamine derivatives useful as opioid receptor agonists” (Meiji Seika Kaisha, Ltd., priority 2000, dated 2004).

Molecules are shown by their SMILES.

T1 sequence (P33533 whole entry): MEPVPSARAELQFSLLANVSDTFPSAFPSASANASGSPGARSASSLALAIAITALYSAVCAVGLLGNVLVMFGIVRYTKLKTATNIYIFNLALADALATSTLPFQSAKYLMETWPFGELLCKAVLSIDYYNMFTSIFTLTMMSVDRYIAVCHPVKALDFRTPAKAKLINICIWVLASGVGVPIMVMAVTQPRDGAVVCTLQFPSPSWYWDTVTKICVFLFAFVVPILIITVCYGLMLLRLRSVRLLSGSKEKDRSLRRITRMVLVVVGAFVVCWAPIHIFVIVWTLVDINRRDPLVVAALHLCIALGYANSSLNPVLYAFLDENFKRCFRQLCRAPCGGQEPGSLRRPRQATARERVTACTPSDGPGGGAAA

One may read the Ki as a measure of affinity in units of concentration, obtained from inhibition or displacement. In the case of `CCN(CC)C(=O)c1ccc(C(CCN2CCC3(CC2)CNC(=O)c2cccc(C)c23)c2ccccc2OC)cc1` (stereo not shown) [Example 9, 1′-[3-(4-Diethylcarbamoylphenyl)-3-(2-methoxyphenyl)Propyl]-2,3-dihydro-5-methylspiro [isoquinoline-4(1H),4′-piperidin]-1-one], the Ki is 1210 nM.
